In patent US20020035138A1, “Activating Cl- secretion” (Southern Research Institute, priority 1997, published 2002):
Entries after “also recorded” stand apart in the source; their conditions may differ. Where two headings read alike, the source gives them in different places.

What was measured:
[1] = system: CFPAC cells; assay: Iodide efflux protocol in CFPAC cells; type: cell-based, human; conditions: for iodide (anion) efflux: CF pancreatic ductular cells (CFPAC), FIG. 1
Source text: (§1) The iodide efflux protocol is a conventional test for the existence of anion permeability pathways, including both CFTR (cAMP-activated) and non-CFTR permeability pathways (e.g., Ca^2+-activated Cl^− transport). […] Ionomycin, a Ca^2+ ionophore, is known to activate non-CFTR-type anion efflux pathways in CFPAC cells by increasing intracellular Ca^2+.
(§2) Epithelial cells in the pancreatic ducts, lung, and colon secrete fluid and electrolytes into the pancreatic ductular lumen, airways and intestinal lumen, respectively. The inability to secrete anions in response to a cAMP-dependent agonist such as forskolin is a hallmark of the CF phenotype. […] Methods: Iodide efflux. Iodide efflux was performed as previously described (Venglarik et al., Am. J. Physiol. 259:C358-C364, 1990, and Drumm et al., Cell 62:1227-1233, 1990) Cells were grown on […] culture dishes, and effluxes were performed when the cells were 80-100% confluent using a phosphate buffered Ringer's solution. Cells were loaded with ^125I (2-5 μCi/ml) for 30 minutes and then washed with PBS to remove extracellular ^125I. Efflux was detected by measuring the radioactivity in the extracellular solution which was changed every 15 seconds. At specific points, compounds were added to the cells. Increases in the rate of efflux after addition of a compound indicates the activation of an anion permeability pathway.

[2] = system: primary airway cells taken from a CF patient; assay: Iodide efflux protocol in primary airway cells taken from a CF patient; type: cell-based, human; conditions: FIG. 2
Experimental: as §2

[3] = system: T84 cells; assay: Iodide efflux protocol in T84 colonic epithelial cells; type: cell-based, human; conditions: T84 cells expressing high levels of CFTR
Source text: as §1, §2

[4] = system: CFPAC cells; assay: Cell proliferation assay (Cell titer 96 kit); type: cell-based, human
Experimental: (§3) Proliferation was measured as in Hughes et al., Tumor specific killing with high bystander toxicity using the human tyrosinase promoter to express the E. coli PNP gene, Cancer Research 55: 3339-3345, 1995 and Parker et al., In vivo gene therapy of cancer with E. coli purine nucleoside phosphorylase, Human Gene Therapy, 1997 (in press) using a commercially available kit (Cell titer 96 kit, Promega) and carried out according to manufacturer's protocol. 20 μm 2931 activates Cl^− secretion in CF cells within 5 minutes. […] (FIG. 3A) cAMP levels were tested using the cAMP Immunoassay kit (Cayman) according to manufacturer's protocol.

[5] = system: cellular cAMP; assay: cAMP Immunoassay kit, cellular cAMP levels; type: cell-based, human; conditions: same conditions that stimulate anion transport, FIG. 3
Experimental: as §3

[6] = system: CFPAC-1 cell monolayers; assay: Short circuit current (ISC) in CFPAC-1 cell monolayers, Ussing chamber; type: cell-based, human
Experimental: FIG 4. Cl^- secretion in CFPAC-1 cells. CFPAC-1 cell monolayers were grown to confluency on permeable supports (Millipore) for 10 days. Filters were mounted in an Ussing chamber, and short circuit current measurement was carried out as previously described ([…] and Dawson, Am. J. Physiol. 251:[…]-[…], 1986). […] The compounds were screened using different concentrations of drugs and adding them to alternate surfaces of the filters (mucosal; serosal; mucosal and serosal). The effects of forskolin (10 μM), UTP (100 μM) CPX (100 μm) and duramycin (5 μm) were also studied. […] Explants of CF nasal polyps (primary airway epithelial cells) and control, non-CF colonic epithelial cells (T84) containing wild-type CFTR were also studied. […] In other words, these experiments raise the possibility that Cl^- secretion effects of drugs such as adenosine, milrinone, IBMX, or forskolin might be increased by compounds employed in the present invention by a conjoint therapy treatment. […] The ISC occurs after mucosal, but not serosal addition of the compound.

[7] = system: T84 colonic epithelial cells; assay: Short circuit current (ISC) in T84 colonic epithelial cell monolayers; type: cell-based, human; conditions: with 10 μM forskolin
Experimental: FIG 4. Cl^- secretion in CFPAC-1 cells. CFPAC-1 cell monolayers were grown to confluency on permeable supports (Millipore) for 10 days. Filters were mounted in an Ussing chamber, and short circuit current measurement was carried out as previously described ([…] and Dawson, Am. J. Physiol. 251:[…]-[…], 1986). Filters were bathed in Ringer's solution (in mM: 145 Na^+, 5 K^+, 124.8 Cl^-, 1.2 Ca^2+, 1.2 Mg^2+, 25 HCO3-, 4.2 PO4, 10 glucose; pH=7.4) on the serosal surface and in a 6 mM Cl^- Ringer's solution (118.8 mM of Cl^- was replaced by the impermeant anion gluconate) on the mucosal surface. The compounds were screened using different concentrations of drugs and adding them to alternate surfaces of the filters (mucosal; serosal; mucosal and serosal). The effects of forskolin (10 μM), UTP (100 μM) CPX (100 μm) and duramycin (5 μm) were also studied. […] Explants of CF nasal polyps (primary airway epithelial cells) and control, non-CF colonic epithelial cells (T84) containing wild-type CFTR were also studied. […] In other words, these experiments raise the possibility that Cl^- secretion effects of drugs such as adenosine, milrinone, IBMX, or forskolin might be increased by compounds employed in the present invention by a conjoint therapy treatment. […] The ISC occurs after mucosal, but not serosal addition of the compound.

[8] = system: mouse intestine; assay: ISC across mouse intestine (colon sections) in Ussing chambers
Experimental: Small sections of mouse colon from both wild-type and CF knockout mice were mounted in Ussing chambers, and ISC measurements were recorded as described above. Both mucosal and serosal surfaces were bathed in regular Ringer's solution, and TTX (1.54×10^−3 μM) was added to the serosal side of the tissue. After a steady-state had been obtained, amiloride (10^−4 M) was added to the mucosal surface. Both sides were then bathed with regular Ringer's. A Cl gradient was established by bathing the mucosal surface with a 6 mM Cl^− solution. 5-diazoimidazol-4-carboxylic acid n-octyl ester (100 μM) was added first to the mucosal and then the serosal surface of the mounted tissue (FIG. 9).

[9] = system: CF tissues; conditions: including transepithelial transport in vivo; cited from earlier work
[10] = target: T1, ΔF508 CFTR (Homo sapiens, UniProt P13569, DEL508-508); conditions: cited from earlier work
T1 construct: host or cells: CFPAC and IB3-1 (endogenous mutant CFTR); NIH 3T3 (after expression of the ΔF508 protein)

[11] = 100 μM, serosal-mucosal Cl- gradient

T1 sequence (P13569 with tags, fused parts or gaps DEL508-508): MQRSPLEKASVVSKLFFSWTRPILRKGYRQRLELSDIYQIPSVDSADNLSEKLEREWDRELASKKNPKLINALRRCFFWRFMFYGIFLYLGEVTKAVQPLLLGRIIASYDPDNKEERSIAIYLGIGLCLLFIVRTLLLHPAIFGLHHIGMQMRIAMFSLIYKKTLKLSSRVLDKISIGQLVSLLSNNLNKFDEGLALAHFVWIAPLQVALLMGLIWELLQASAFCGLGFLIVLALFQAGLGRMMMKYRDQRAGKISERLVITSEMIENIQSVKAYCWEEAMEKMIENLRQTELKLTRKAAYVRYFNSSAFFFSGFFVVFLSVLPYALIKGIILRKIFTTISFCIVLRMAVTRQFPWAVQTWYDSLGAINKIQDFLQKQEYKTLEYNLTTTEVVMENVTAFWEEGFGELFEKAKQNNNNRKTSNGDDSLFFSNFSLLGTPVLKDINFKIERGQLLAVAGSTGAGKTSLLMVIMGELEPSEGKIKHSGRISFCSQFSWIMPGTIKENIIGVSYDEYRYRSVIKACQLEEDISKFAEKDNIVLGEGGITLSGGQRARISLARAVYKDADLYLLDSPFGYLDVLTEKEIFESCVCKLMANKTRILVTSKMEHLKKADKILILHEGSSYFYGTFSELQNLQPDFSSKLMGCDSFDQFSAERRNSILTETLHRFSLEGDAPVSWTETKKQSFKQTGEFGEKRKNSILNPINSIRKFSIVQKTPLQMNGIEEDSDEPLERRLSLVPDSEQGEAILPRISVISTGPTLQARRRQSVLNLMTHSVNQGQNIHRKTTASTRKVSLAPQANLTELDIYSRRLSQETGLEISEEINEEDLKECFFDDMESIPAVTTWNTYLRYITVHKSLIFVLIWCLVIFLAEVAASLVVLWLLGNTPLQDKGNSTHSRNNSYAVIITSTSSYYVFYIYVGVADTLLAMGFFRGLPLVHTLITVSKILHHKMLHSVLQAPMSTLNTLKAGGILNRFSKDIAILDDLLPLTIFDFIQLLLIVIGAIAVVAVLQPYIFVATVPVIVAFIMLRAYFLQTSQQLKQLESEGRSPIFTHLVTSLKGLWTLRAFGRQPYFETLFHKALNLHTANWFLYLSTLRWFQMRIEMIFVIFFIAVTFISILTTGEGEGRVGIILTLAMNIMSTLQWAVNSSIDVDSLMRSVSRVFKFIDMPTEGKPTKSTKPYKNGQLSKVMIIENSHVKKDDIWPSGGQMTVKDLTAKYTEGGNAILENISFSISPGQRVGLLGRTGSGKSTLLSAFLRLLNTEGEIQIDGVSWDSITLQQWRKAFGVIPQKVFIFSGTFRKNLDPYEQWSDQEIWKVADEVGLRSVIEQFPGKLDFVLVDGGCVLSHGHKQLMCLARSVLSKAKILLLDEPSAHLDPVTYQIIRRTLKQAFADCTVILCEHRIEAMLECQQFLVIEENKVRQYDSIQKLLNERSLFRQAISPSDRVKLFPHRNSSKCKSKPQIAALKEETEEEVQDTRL

CCCCCCCCOC(=O)C1=NC=NC1=[N+]=[N-] [5-diazoimidazol-4-carboxylic acid n-octyl ester]
time to activation of Cl- secretion ([1]; 20 μm, CF cells): ≤ 5 min
iodide (anion) efflux [1]: confers a rapid efflux of iodide; also recorded: strongly activated
anion efflux after removal of extracellular Ca2+ ([1]; extracellular Ca2+ removed): does not substantially inhibit anion efflux
iodide (anion) efflux [2]: strongly activated
iodide (anion) efflux [3]: strongly activated
proliferation of cells ([4]; at concentrations that activate anion efflux, FIG. 3A): allows proliferation of cells
effects on cellular proliferation ([4]; cells grown for 7 days at 20 μm): minimal effects on cellular proliferation
cellular cAMP [5]: does not increase cellular cAMP
induced ISC in presence of BAPTA AM ([6]; BAPTA AM 100 μM, FIG. 7): had no effect
potency and duration of effects relative to UTP and CPX ([6]; CFPAC cells): more potent and prolonged effects
direction of ISC ([6]; Cl- gradient reversed (mucosal-to-serosal)): could be reversed
ISC response ([6]; Cl- omitted from mucosal and serosal bathing solutions): much less pronounced
ISC effect in presence of acetazolimide ([6]; acetazolimide 100 μM): did not inhibit the effect
ISC response ([6]; added to apical (mucosal) surface, serosal-to-mucosal Cl- gradient): strong ISC response
ISC response ([6]; added to basolateral (serosal) surface): not basolateral
ISC response in presence of amiloride ([6]; amiloride 10 μM on apical surface): did not alter this response
duration of activity ([6]; compared with UTP, CPX or duramycin, same conditions, FIG. 8): of longer duration than other drugs
ISC activation without imposed gradient ([6]; symmetrical Ringer's lactate): still present
induced ISC in presence of thapsagargin ([6]; thapsagargin 0.1 μM, FIG. 7): had no effect
ISC on top of maximal forskolin activation [7]: augmented the maximal ISC activation
ISC activation ([8]; CFTR knock out (−/−) mice, data not shown): ISC activation is also observed
ISC activation ([8]; normal mice, 100 μM, mucosal surface): activates ISC
ISC activation ([8]; ΔF508 CFTR transgenic mice, 100 μM, mucosal surface): activates ISC

Nc1ncnc2c1ncn2[C@@H]1O[C@H](COP(=O)(O)OP(=O)(O)OP(=O)(O)O)[C@@H](O)[C@H]1O [ATP, adenosine triphosphate]
Cl- secretion [9]: shown to activate

CCCn1c(=O)c2[nH]c(C3CCCC3)nc2n(CCC)c1=O [CPX, reference compound]
ISC / transepithelial Cl- secretion [6, 11]: did not suggest strong Cl^− secretion; also recorded: do not mediate Cl^− secretion
direction of predominant ISC [6, 11]: opposite to that expected
Cl- efflux ([10]; NIH 3T3 cells after expression of the ΔF508 protein): could be activated
Cl- efflux ([10]; airway cells derived from a CF patient (IB3-1-cell line)): could be activated
Cl- efflux ([10]; human CF pancreatic cells (CFPAC-cell line)): could be activated

C[C@H](CCC(=O)O)C[C@H](C)C[C@H](C)C(=O)/C=C(\O)[C@H](C)C[C@H](C)C/C=C/[C@@H](C)[C@@H](O)[C@@H](C)[C@@H](O)C[C@@H]1CC[C@@](C)([C@H]2CC[C@@](C)([C@@H](C)O)O2)O1 [Ionomycin, reference compound]
iodide (anion) efflux [1]: anticipated stimulation of iodide efflux

O=c1ccn([C@@H]2O[C@H](COP(=O)(O)OP(=O)(O)OP(=O)(O)O)[C@@H](O)[C@H]2O)c(=O)[nH]1 [UTP, uridine triphosphate, reference compound]
ISC / transepithelial Cl- secretion [6, 11]: small, transient activation; also recorded: smaller, transient effect
Cl- secretion [9]: shown to activate

duramycin [reference compound]
ISC / transepithelial Cl- secretion ([6]; 5 μm): stronger, although transient, activation
